Counter-ions that a name gives are not always drawn.
system: Amycolatopsis NA40; experiment: Effects of inducers and cofactors on growth and nitrile hydratase activity in the basal medium; format: cell-based; conditions: substance added as cofactor to basal medium
Experimental: (§1) (1) For determination of the nitrile hydratase activity, a reaction mixture (2 ml) containing 3-cyanopyridine (1.0 M, 1.0 ml), potassium phosphate buffer (pH 7.0, 0.1 M, 0.5 ml) and 0.5 ml of cell suspension were incubated at 20° C. for 30 min with stirring. The reaction was stopped by addition of 0.2 ml of 3 N HCl. After centrifuging briefly, the nicotinamide formed was determined by means of HPLC (Shimadzu SPD 6A system using a C18 column (Develosil ODS-HG-5. […]); eluent: 10 mM KH2PO4/H3PO4 (pH 2.8)/acetonitrile 9:1 (v/v); flow rate: 1 ml/min; the absorption was measured at 230 nm). The specific activity was expressed as µmol of nicotinamide formed/ml/min/OD610 nm.
(§2) The reaction rates of aliphatic nitriles in the enrichment medium (Table 1) with isolated bacteria is summarized in Table 5, the effects of inducers and cofactors in the basal medium (Table 2) is summarized in Table 4 and the activity comparison of Amycolatopsis to Rhodoccus in the basal medium (Table 2) is summarized in Table 6.

SMILES	Growth (OD610 nm)	Specific activity [μmol/ml/min/OD]	Total activity [µmol/mL/min]
O.O.O.O.O.O.O.O=S(=O)([O-])[O-].[Fe+2] [FeSO4•7H2O]	8.32	0.40	3.36
O.O.O.O.O.O.[Cl-].[Cl-].[Co+2] [CoCl2•6H2O]	8.41	5.68	47.8

same assay, conditions: substance added as inducer to basal medium

SMILES	Growth (OD610 nm)	Specific activity [μmol/ml/min/OD]
CCC(N)=O [Propionamide]	1.91	0.48
CCCC(N)=O [Butyramide]	2.19	0.88
O=C1CCCCCN1 [ε-Caprolactam]	0.66	14.5
C/C=C/C(N)=O [Crotonamide]	3.41	6.72
NC(N)=O [Urea]	1.72	1.73
C=C(C)C(N)=O [Methacrylamide]	3.33	0.74

same assay, conditions: substance added as inducer to basal medium; nicotinamide formed from 3-cyanopyridine, 20° C.

SMILES	Total activity [µmol/mL/min]
CCC(N)=O [Propionamide]	0.92
CCCC(N)=O [Butyramide]	0.19
O=C1CCCCCN1 [ε-Caprolactam]	9.52
C/C=C/C(N)=O [Crotonamide]	22.9
NC(N)=O [Urea]	2.97
C=C(C)C(N)=O [Methacrylamide]	2.46

system: Actinomadura spadix 45O1; experiment: Conversion rates of aliphatic nitriles using the isolated bacteria (enrichment medium); format: cell-based; conditions: strain 45O1
Experimental: a) Various soil samples were inoculated with various nitriles or amides as a C and N source in the enrichment medium according to Table 1 and incubated at 37° C. or 45° C. for 7 10 days. The cultures were then transferred to the same medium and again cultured at 37° C. for 7 10 days. The whole process was repeated 3 times. The cultures were then diluted and plated out in order to obtain individual colonies. The plates were incubated at 37° C. for 5 days. The different colonies were then tested for the desired activity.
[…] as a C and N source for Amycolatopsis NE31 (DSMZ 11616) Actinomadura spadix E3733 and Actinomadura spadix E3736, azelanitrile served as a C and N source for Amycolatopsis NA40 (DSMZ 11617) and Actinomadura spadix 45A32, n-octanenitrile served as a C and N source for Actinomadura spadix 4501 and cyanoacetic acid served as a C and N source for Actinomadura spadix C15.
as §1, §2

SMILES	Specific activity [μmol/ml/min/OD]	Total activity [µmol/mL/min]
CCCCCCCC#N [n-octanenitrile]	4.45	32.2

same assay, conditions: strain 45O1, nitrile as substrate in enrichment medium

SMILES	Growth (OD610 nm)
CCCCCCCC#N [n-octanenitrile]	7.24

system: NA40 nitrile hydratase (resting NA40 cells); experiment: Substrate specificity of resting NA40 cells; format: cell-based, Amycolatopsis NA40; conditions: resting NA40 cells, 20° C., 10 min; 3-cyanopyridine = 100; substrate concentration per Table 8
Experimental: (3) For determination of the activity of NA40 with respect to a number of substrates, cells having a dry weight of 0.0388 mg were incubated in the buffer described above. The reaction was started by addition of the appropriate substrate and incubated at 20° C. with shaking for 10 min. The reaction was stopped by addition of 0.2 ml of 2 N HCl and the reaction mixture was briefly centrifuged. The supernatant was analysed by means of HPLC or gas chromatography.

SMILES	Relative activity [%]
N#Cc1ccccc1 [Benzonitrile]	51
CCCC#N [n-Butyronitrile]	194
C=C(C)C#N [Methacrylonitrile]	130
N#Cc1ccccn1 [2-Cyanopyridine]	128
CC=CC#N [Crotononitrile]	52
N#Cc1cccc(Cl)c1 [m-Chlorobenzonitrile]	75
CCC#N [Propionitrile]	105
N#Cc1ccncc1 [4-Cyanopyridine]	168
N#Cc1cccnc1Cl [2-Chloro-3-cyanopyridine]	126
N#Cc1ccccc1Cl [o-Chlorobenzonitrile]	96

system: purified nitrile hydratase from NA40; experiment: Substrate specificity of the purified nitrile hydratase; format: biochemical, Amycolatopsis NA40; conditions: purified enzyme; 3-cyanopyridine = 100
Experimental: The substrate specificity was determined analogously to Example 2 (1).
1.7 Units of enzyme were added to the reaction mixture (2.0 ml). The reaction mixture contained the respective substrate in 45 mM phosphate buffer (pH 7.0).

SMILES	Relative activity, Enzyme reaction [%]
N#Cc1ccccc1 [Benzonitrile]	64
CCCC#N [n-Butyronitrile]	101
C=C(C)C#N [Methacrylonitrile]	125
N#Cc1ccccn1 [2-Cyanopyridine]	221
CC=CC#N [Crotononitrile]	67
N#Cc1cccc(Cl)c1 [m-Chlorobenzonitrile]	90
CCC#N [Propionitrile]	222
N#Cc1ccncc1 [4-Cyanopyridine]	179
N#Cc1cccnc1Cl [2-Chloro-3-cyanopyridine]	90
N#Cc1ccccc1Cl [o-Chlorobenzonitrile]	127

system: purified nitrile hydratase from NA40; experiment: not given; format: biochemical, Amycolatopsis NA40; conditions: not given
Experimental: The effect of various inhibitors was determined.

SMILES	Relative activity [%]
O=C(O)CI [Iodoacetic acid]	39
O=C(O)CN(CCN(CC(=O)O)CC(=O)O)CC(=O)O [EDTA, ethylenediaminetetra-acetic acid]	115
Oc1cccc2cccnc12 [8-Hydroxyquinoline]	110

same assay, conditions: inhibitor 0.1 mM; without inhibitor = 100

SMILES	Relative activity [%]
O=C(O)c1cc[c]([Hg][Cl])cc1 [4-Chloromercurobenzoic acid]	69

same assay, conditions: inhibitor 1 mM; without inhibitor = 100

SMILES	Relative activity [%]
NNc1ccccc1 [Phenylhydrazine]	8
O=S(=O)(O)c1cc(O)c(O)c(S(=O)(=O)O)c1 [Tiron, disodium salt of 4,5-dihydroxy-1,3-benzene-disulphonic acid]	110
NO [Hydroxylamine]	37
NNC(N)=O [Semicarbazide]	82
c1cnc2c(c1)ccc1cccnc12 [o-Phenanthroline]	89
c1ccc(-c2ccccn2)nc1 [α,α′-Dipyridyl]	100
CCN1C(=O)C=CC1=O [N-ethylmaleimide]	97
CCN(CC)C(=S)S [Diethyl dithiocarbamate]	89

system: Amycolatopsis NA40; experiment: Effect of methanol on resting cells of NA40; format: cell-based; conditions: addition of 5 15% methanol
Experimental: The reaction was carried out for 10 min in the presence of 0 20% (v/v) methanol according to Table 13.

SMILES	activity of resting NA40 cells
CO [methanol]	increased

same assay, conditions: methanol 5 % (v/v), 10 min; 0 % = 100

SMILES	Relative activity [%]
CO [methanol]	123

same assay, conditions: methanol 10 % (v/v), 10 min

SMILES	Relative activity [%]
CO [methanol]	128

same assay, conditions: methanol 15 % (v/v), 10 min

SMILES	Relative activity [%]
CO [methanol]	130

same assay, conditions: methanol 20 % (v/v), 10 min

SMILES	Relative activity [%]
CO [methanol]	105

system: Rhodococcus rhodochrous J1; experiment: Substrate specificity of the Rhodococcus strains; format: cell-based; conditions: Rhodococcus rhodochrous J1; 3-cyanopyridine = 100
Experimental: (§3) Rhodococcus rhodochrous J1 was cultured for 72 h in the medium described in EP-A 0 307 926. The microorganisms Rhodoccus GF674, GF578, GF270 and GF376 were cultured in the following media at pH 7.0 for up to 96 h:
(§4) The substrate specificity is summarized as relative activity in Table 15.

SMILES	relative activity (substrate specificity) [%]
N#Cc1ccccc1 [Benzonitrile]	27
CCCC#N [n-Butyronitrile]	352
C=C(C)C#N [Methacrylonitrile]	86.9
N#Cc1ccccn1 [2-Cyanopyridine]	45
CC#N [Acetonitrile]	608
CC=CC#N [Crotononitrile]	78.2
N#Cc1cccc(Cl)c1 [m-Chlorobenzonitrile]	43
CCC#N [Propionitrile]	434
N#Cc1ccncc1 [4-Cyanopyridine]	70
N#Cc1ccccc1Cl [o-Chlorobenzonitrile]	2.8

system: Rhodococcus GF270; experiment: Substrate specificity of the Rhodococcus strains; format: cell-based; conditions: Rhodococcus GF270; 3-cyanopyridine = 100
Experimental: as §3
(§5) Rhodoccus GF674 in a medium comprising yeast extract 1.0 g/l, fructose 5.0 g/l, malt extract 10.0 g/l, acetamide 5.0 g/l, KH2PO4 2.0 g/l, MgSO47H2O 0.5 g/l and CoCl2.6H2O 10.0 mg. Rhodoccus GF578 in a medium containing yeast extract 1.0 g/l, fructose 15.0 g/l, malt extract 10.0 g/l, acetamide 25.0 g/l, KH2PO4 2.0 g/l, MgSO47H2O 0.5 g/l and CoCl2.6H2O 5.0 mg. […] Rhodoccus GF3 76 in a medium containing yeast extract 1.0 g/l, sodium citrate 10.0 g/l, malt extract 15.0 g/l, butyramide 7.5 g/l, KH2PO4 2.0 g/l, MgSO4.7H2O 0.5 g/l and CoCl2.6H2O 15.0 mg.
as §4

SMILES	relative activity (substrate specificity) [%]
N#Cc1ccccc1 [Benzonitrile]	13.4
CCCC#N [n-Butyronitrile]	181
C=C(C)C#N [Methacrylonitrile]	0
N#Cc1ccccn1 [2-Cyanopyridine]	15.7
CC#N [Acetonitrile]	659
CC=CC#N [Crotononitrile]	37.1
N#Cc1cccc(Cl)c1 [m-Chlorobenzonitrile]	8.41
CCC#N [Propionitrile]	37.3
N#Cc1ccncc1 [4-Cyanopyridine]	55.6
N#Cc1ccccc1Cl [o-Chlorobenzonitrile]	0

system: Rhodococcus GF376; experiment: Substrate specificity of the Rhodococcus strains; format: cell-based; conditions: Rhodococcus GF376; 3-cyanopyridine = 100
Experimental: as §3, §5, §4

SMILES	relative activity (substrate specificity) [%]
N#Cc1ccccc1 [Benzonitrile]	57.2
CCCC#N [n-Butyronitrile]	195
C=C(C)C#N [Methacrylonitrile]	0
N#Cc1ccccn1 [2-Cyanopyridine]	54.3
CC#N [Acetonitrile]	806
CC=CC#N [Crotononitrile]	110
N#Cc1cccc(Cl)c1 [m-Chlorobenzonitrile]	8.63
CCC#N [Propionitrile]	245
N#Cc1ccncc1 [4-Cyanopyridine]	79.8
N#Cc1ccccc1Cl [o-Chlorobenzonitrile]	0

system: Rhodococcus GF578; experiment: Substrate specificity of the Rhodococcus strains; format: cell-based; conditions: Rhodococcus GF578; 3-cyanopyridine = 100
Experimental: as §3, §5, §4

SMILES	relative activity (substrate specificity) [%]
N#Cc1ccccc1 [Benzonitrile]	85.1
CCCC#N [n-Butyronitrile]	368
C=C(C)C#N [Methacrylonitrile]	122
N#Cc1ccccn1 [2-Cyanopyridine]	200
CC#N [Acetonitrile]	347
CC=CC#N [Crotononitrile]	124
N#Cc1cccc(Cl)c1 [m-Chlorobenzonitrile]	28.9
CCC#N [Propionitrile]	132
N#Cc1ccncc1 [4-Cyanopyridine]	167
N#Cc1ccccc1Cl [o-Chlorobenzonitrile]	49.0

system: Rhodococcus GF674; experiment: Substrate specificity of the Rhodococcus strains; format: cell-based; conditions: Rhodococcus GF674; 3-cyanopyridine = 100
Experimental: as §3, §5, §4

SMILES	relative activity (substrate specificity) [%]
N#Cc1ccccc1 [Benzonitrile]	138
CCCC#N [n-Butyronitrile]	491
C=C(C)C#N [Methacrylonitrile]	176
N#Cc1ccccn1 [2-Cyanopyridine]	308
CC#N [Acetonitrile]	1.49
CC=CC#N [Crotononitrile]	98.0
N#Cc1cccc(Cl)c1 [m-Chlorobenzonitrile]	27.8
CCC#N [Propionitrile]	274
N#Cc1ccncc1 [4-Cyanopyridine]	231
N#Cc1ccccc1Cl [o-Chlorobenzonitrile]	64.8

Source: patent publication US7666635B2, “Process for the preparation of amides” (priority 1997, dated 2010)
